Assays:
[1] = molecular target: T1, muscarinic receptors, lachrymal glands (Rattus norvegicus, UniProt P08483); assay: Receptor bonding test in vivo, lachrymal glands (3H-NMS); set-up: species or system female rats; conditions: iv, 0.5 h, in vivo binding, i.v., 113 ng/kg 3H-NMS, read-out: ID50 Lachrymal glands
T1 construct: from tissue; host or cells: lachrymal glands of female rats, labelled in vivo
Experimental: For these experiments, female rats with a body weight of about 200 g were used. Before the start of the test the animals were anaesthetised with a dosage of 1.25 g/kg of urethane. The animals were each given the prescribed dosage of test substance by intravenous injection. After 15 minutes, 113 ng/kg of ^3 H-N-methylscopolamine (^3 H-NMS) were administered by the same route. After another 15 minutes the animals were killed and the heart, bronchi and lachrymal glands were removed. These organs were dissolved in Soluene R and the radioactivity was determined. The measurements were assumed to be total bonding. […] ID50 values were determined for the individual organs using these tests.

[2] = molecular target: T2, muscarinic receptors of the atrium (Cavia porcellus, UniProt H0VRN8); assay: Dissociation constants (KB) on spontaneously beating right atrium, methacholine antagonism; set-up: species or system guinea pig; conditions: guinea pig spontaneously beating atrium, methacholine, 30 min contact; read-out: KB Heart (dissociation constant)
T2 construct: In the isolated, spontaneously beating right atrium; from tissue; host or cells: isolated right atrium of guinea pig
T2 sequence (H0VRN8 1-466): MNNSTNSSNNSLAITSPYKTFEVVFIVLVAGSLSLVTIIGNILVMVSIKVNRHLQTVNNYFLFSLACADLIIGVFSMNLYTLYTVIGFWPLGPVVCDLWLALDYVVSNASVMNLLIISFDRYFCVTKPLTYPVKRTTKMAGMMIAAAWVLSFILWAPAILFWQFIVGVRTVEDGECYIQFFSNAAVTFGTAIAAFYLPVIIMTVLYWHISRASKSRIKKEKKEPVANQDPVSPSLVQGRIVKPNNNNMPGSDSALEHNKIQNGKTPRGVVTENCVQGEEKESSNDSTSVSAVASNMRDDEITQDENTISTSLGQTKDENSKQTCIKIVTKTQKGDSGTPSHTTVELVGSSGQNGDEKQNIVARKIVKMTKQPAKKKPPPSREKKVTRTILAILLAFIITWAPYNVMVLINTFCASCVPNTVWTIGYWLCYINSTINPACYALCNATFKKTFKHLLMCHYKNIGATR
Experimental: Dissociation constants (KB values) were determined in vitro on the guinea pig ileum and spontaneously beating atrium. The ileum was removed and incubated in Krebs-Henseleit solution in an organ bath. Contractions were produced by means of increasing concentrations of methacholine (M) so that a full concentration-activity curve could be plotted. Then M was washed out, the test substance was added and kept in contact for 30 minutes and again a concentration-activity curve was plotted with M. The dissociation constant was calculated according to Arunlakshana and Schild (Brit. J. Pharmacol. 14, 48, 1959) from the dosage ratio (DR), i.e. the extent of displacement of the concentration-activity curve.
In the isolated, spontaneously beating right atrium M reduced the heart rate as a function of the concentration. This effect was stopped by the addition of an antimuscarinic. Dissociation constants for the muscarinic receptors of the atrium were obtained in the same way as described above. A comparison of the dissociation constants measured in the two different tissues made it possible to identify cardioselective substances.

[3] = test system: salivation; assay: Salivation-inhibiting effect on the rat (pilocarpine); format: in vivo, male THOM rats; conditions: for ED50: Rattus norvegicus, iv, pilocarpine 2 mg/kg s.c., 50% reduction of saliva volume, read-out: Salivation inhibition (rat) ED50
Experimental: The secretion of saliva was triggered by subcutaneous administration of 2 mg/kg of pilocarpine. The saliva was soaked up with blotting paper and the area occupied by the saliva was determined by planimetry every 5 minutes. The dosage of substance which reduced the volume of saliva by 50% was determined graphically.

[4] = molecular target: T3, muscarinic receptors, submandibular gland (Rattus norvegicus, UniProt P08483); assay: Receptor bonding test in vitro, submandibular gland (displacement of 3H-N-methylscopolamine); format: binding, Sprague-Dawley rats; conditions: 0.3 nmolar 3H-NMS, 30° C., 45 min
T3 construct: After removal of the heart and submandibular gland; from tissue; host or cells: submandibular gland of male Sprague-Dawley rats, homogenate
T3 sequence (P08483 whole entry): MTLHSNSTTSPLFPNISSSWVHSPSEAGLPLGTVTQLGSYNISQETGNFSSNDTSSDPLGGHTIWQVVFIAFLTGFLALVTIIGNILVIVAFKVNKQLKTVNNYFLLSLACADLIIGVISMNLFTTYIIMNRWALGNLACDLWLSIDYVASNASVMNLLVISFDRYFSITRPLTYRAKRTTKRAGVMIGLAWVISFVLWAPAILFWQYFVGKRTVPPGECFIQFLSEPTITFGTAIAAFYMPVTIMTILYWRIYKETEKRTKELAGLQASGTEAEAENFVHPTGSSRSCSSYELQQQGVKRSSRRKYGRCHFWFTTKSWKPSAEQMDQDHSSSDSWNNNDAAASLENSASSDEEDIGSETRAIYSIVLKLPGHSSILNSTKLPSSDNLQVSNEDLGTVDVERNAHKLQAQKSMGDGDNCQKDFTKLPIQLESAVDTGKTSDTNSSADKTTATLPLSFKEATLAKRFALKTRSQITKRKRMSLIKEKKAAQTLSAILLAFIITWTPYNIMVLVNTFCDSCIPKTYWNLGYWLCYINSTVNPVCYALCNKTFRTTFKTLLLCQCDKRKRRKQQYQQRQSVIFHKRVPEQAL

T1 sequence (P08483 whole entry): as above

ED50 [1] [mg/kg]	Kb [2] [nM]	IC50 [4] [nM]	Structure (SMILES)	ED50 [3] [mg/kg]	Ratio of salivation inhibition to M2 activity ([3]; rat, i.v. ED50 values)
> 10	2.45	–	CCCN(CCC)CC1CCCCN1CCNC(=O)N1c2ccccc2C(=O)Nc2cccnc21 (centres unmarked) [Substance A, 5,11-dihydro-11-[[[2-[2-[(dipropylamino)methyl]-piperidin-1-yl]ethyl]amino]carbonyl]-6H-pyrido[2,3-b][1,4]benzodiazepin-6-one]	0.458	–
–	4.9	150	CCN(CC)CC1CCCCN1CCNC(=O)N1c2cc(Cl)ccc2C(=O)Nc2cccnc21 (centres unmarked) [Substance C, 9-chloro-11-[[[2-[2-[(diethylamino)methyl]-piperidin-1-yl]ethyl]amino]carbonyl]-5,11-dihydro-6H-pyrido[2,3-b][1,4]benzodiazepin-6-one]	1.4	–
> 1	0.24	15	CCN(CC)CC1CCCCN1CCNC(=O)N1c2ccccc2NC(=O)c2csc(C)c21 (centres unmarked) [Substance B, 4-[[[2-[2-[(diethylamino)methyl]-piperidin-1-yl]ethyl]amino]carbonyl]-4,9-dihydro-3-methyl-10H-thieno[3,4-b][1,5]benzodiazepin-10-one]	0.078	9.75

From US4873236A, “Condensed diazepinones, processes for preparing them and pharmaceutical compositions containing these compounds” (Dr. Karl Thomae GmbH, priority 1986, dated 1989)
